# Where “and” joins values, the source holds several entries; their conditions need not be identical. Equal entries are not always repeated. Where two headings read alike, the source gives them in different places. Strand notation (5' to 3'): a small letter for the sugar, then the base; units joined by * are phosphorothioate-linked, units joined directly phosphodiester-linked; [ ] holds rarer units or linkages, { } end groups; capitals alone tell only the bases. d = 2'-deoxy (DNA)
# Columns and labels:
# HSV-2 = assay: HSV ELISA assay, HSV-2; format: cell-based
# HSV1-F = assay: HSV ELISA assay, strain HSV1-F; format: cell-based, HSV-1
# HSV1-McKrae = assay: HSV ELISA assay, strain HSV1-McKrae; format: cell-based, HSV-1
# HSV-2 strain E194 = format: cell-based
# HSV1-DM2.1 = assay: microbe, parasite or virus in culture; format: cell-based, HSV-1
# HSV1-PAAr = assay: microbe, parasite or virus in culture; format: cell-based, HSV-1
# vaccinia virus = format: cell-based
# CD4/gp120 interaction = CD4/gp120 interaction (Human immunodeficiency virus type 1 group M subtype B, UniProt P03375); details: ELISA; Callahan et al.; cited from earlier work
# HSV-1 (KOS) [1] = assay: HSV-1 infection ELISA assay; format: cell-based
# [2] = target: Apis mellifera phospholipase A2 (Apis mellifera, UniProt P00630)
# [3] = tested on: Phospholipase A2 isolated from the venom of Trimeresurus flavoridis; assay: Phospholipase A2 enzyme assay, Trimeresurus flavoridis venom enzyme; format: biochemical
# [4] = target: Bovine pancreatic phospholipase A2 (Bos taurus, UniProt P00593)
# Bovine pancreatic phospholipase A2, sequence (P00593 23-145): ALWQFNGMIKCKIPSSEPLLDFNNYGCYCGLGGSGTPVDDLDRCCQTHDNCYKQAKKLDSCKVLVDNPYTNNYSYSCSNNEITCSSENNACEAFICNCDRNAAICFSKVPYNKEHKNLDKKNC
# [5] = tested on: Crotalus durissus terrificus phospholipase A2
# [6] = target: T1, human type II phospholipase A2 (Homo sapiens, UniProt P14555); assay: Human type II phospholipase A2 enzyme assay (3H-oleic acid labelled E. coli substrate); format: biochemical
# T1 sequence (P14555 21-144): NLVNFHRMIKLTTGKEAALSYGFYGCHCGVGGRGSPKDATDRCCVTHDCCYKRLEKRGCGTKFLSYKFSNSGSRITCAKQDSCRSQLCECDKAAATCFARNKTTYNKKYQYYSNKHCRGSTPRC
# [7] = tested on: influenza strain A/NWS/33 (H1N1); format: cell-based, influenza virus
# [8] = tested on: rhinovirus 2 (R-2), strain HGP; format: cell-based, human rhinovirus
# [9] = tested on: Adenovirus, Type 5 (A-5), strain Adenoid 75; format: cell-based
# [10] = tested on: respiratory syncytial virus (RSV) strain Long; format: cell-based
# HSV-1 (KOS) [11] = assay: Effect of time of oligonucleotide addition on HSV-1 inhibition (NHDF cells, ELISA); format: cell-based; set-up: dose or concentration left out as unconfirmed; details: added at the time of virus infection (t=0)
# CEM cell line = assay: Cytotoxicity (TC50) alongside acute HIV infection assay
# HIV-1IIIB = assay: Acute HIV infection assay (XTT, CEM cells); details: for IC50: inhibition of HIV
# HIV = format: cell-based
# HSV-1 (KOS) [12] = assay: HSV-1 virus yield assay; format: cell-based; details: FIG. 2
# varicella zoster virus = format: cell-based
# [13] = 50% inhibition of HSV replication relative to control infected cells, Table 1
compound,measurement,setting,value
"Nc1nc2c(ncn2COCCO)c(=O)[nH]1 [ACV, 9-(2-hydroxyethoxymethyl)guanine]",EC50,HSV-2; Human alphaherpesvirus 2,2000 nM
same,EC50,HSV1-F; Human alphaherpesvirus 1,700 nM
same,EC50,HSV1-McKrae; Human alphaherpesvirus 1,1800 nM
same,ED50,HSV-2 strain E194,97700 nM
same,EC50,HSV1-DM2.1; Human alphaherpesvirus 1,> 3000 nM
same,EC50,HSV1-PAAr; Human alphaherpesvirus 1,> 3000 nM
"Nc1ncnc2c1ncn2[C@@H]1O[C@H](CO)[C@@H](O)[C@@H]1O [Ara-A, 9-(β-D-arabinofuranosyl)adenine]",ED50,vaccinia virus; Vacc,15800 nM
Dextran sulfate,effect on the gp120/CD4 interaction,CD4/gp120 interaction,does not prevent the gp120/CD4 interaction
"ISIS 1082: GCCGAGGTCCATGTCGTACGC, SEQ ID NO 134; negative control, complementary to HSV UL13 translation initiation codon, no runs of G (dG*dC*dC*dG*dA*dG*dG*dT*dC*dC*dA*dT*dG*dT*dC*dG*dT*dA*dC*dG*dC)",EC50,HSV-2,2000 nM
same,EC50,"HSV-1 (KOS) [1]; HSV-1 (KOS strain), Table 9, some in duplicate",2500 nM and 1800 nM
same,EC50,"HSV-1 (KOS) [1]; HSV-1 (KOS), Table 10",2100 nM
same,EC50,HSV1-F,> 3000 nM
same,EC50,HSV1-McKrae,> 3000 nM
same,EC50,"HSV1-DM2.1; HSV1-DM2.1 (resistant to ACV), read-out: EC50",> 3000 nM
same,EC50,"HSV1-PAAr; HSV1-PAAr (resistant to ACV), read-out: EC50",> 3000 nM
"ISIS 3196: GGG T GGG T ATA G AAG G GCT CC, P = S, SEQ ID NO 47 (GGGTGGGTATAGAAGGGCTCC; all phosphorothioate, sugars by position and methylation of C not given here)",IC50,[2],> 100000 nM
same,IC50,[3],> 10000 nM
same,EC50,HSV-1 (KOS) [1]; [13],200 nM
same,IC50,[4],~100000 nM
same,IC50,[5],~300 nM
same,inhibition of human type II phospholipase A2,[6]; 1 μM,completely inhibited
same,% Inhibition (1 μM),"[6]; 1 μM, Table 4",98.5%
same,% Inhibition (1 μM),"[6]; 1 μM, Table 5, two separate experiments",100% and 76.2%
same,IC50,[6]; FIG. 5,~150 nM
same,effect on substrate kinetics,"[6]; increasing E. coli substrate, ISIS 3481 at 0.2 μM and 2 μM",apparent noncompetitive inhibitor
same,inhibitory activity (% inhibition),[6]; not boiled,94%
same,inhibitory activity (% inhibition),[6]; placed in boiling water for 15 minutes prior to assay,21%
"ISIS 3383: scrambled version of ISIS 1082, SEQ ID NO: 122; negative control oligonucleotide (TGGGCACGTGCCTGACACGGC; chemistry not given here)",ED50,vaccinia virus,>100000 nM
same,ED50,[7],19000 nM
same,TI,[7],>5
same,ED50,[8],>100000 nM
same,ED50,[9],>100000 nM
same,ED50,HSV-2 strain E194,2800 nM
same,TI,HSV-2 strain E194,>36
same,ED50,[10],700 nM
same,TI,[10],60
same,inhibition of HSV replication,HSV-1 (KOS) [11],inhibited HSV replication
"ISIS 4721: CAC GGG GTC G, P = S, SEQ ID NO 32 (CACGGGGTCG; all phosphorothioate, sugars by position and methylation of C not given here)",TC50,CEM cell line,142000 nM
same,EC50,HSV-1 (KOS) [1]; [13],400 nM
same,TI (TC50/IC50),HIV-1IIIB,546
same,IC50,HIV-1IIIB,210 nM and 260 nM
"ISIS 5652: TT GGGG TT GGGG TT GGGG TT, P = S, SEQ ID NO 37 (TTGGGGTTGGGGTTGGGGTT; all phosphorothioate, sugars by position not given here)",ED50,[7],600 nM
same,TI,[7],93
same,ED50,HIV,180 nM
same,TI,HIV,227
same,EC50,HSV-1 (KOS) [1]; [13],160 nM
same,ED50,[8],>100000 nM
same,anti-HSV activity in virus yield assay,HSV-1 (KOS) [12],dose-dependent anti-HSV activity
same,ED50,[9],>100000 nM
same,TI,[9],<1.0
same,ED50,varicella zoster virus,18000 nM
same,ED50,HSV-2 strain E194,300 nM
same,TI,HSV-2 strain E194,>333
same,ED50,[10],1900 nM
same,TI,[10],>53
same,TI (TC50/IC50),HIV-1IIIB,227
same,IC50,HIV-1IIIB,100 nM and 180 nM
